{
  "source": "patent US4496591A",
  "about": "“Insecticidal bis-carbamate sulfides” (priority 1981, dated 1985)",
  "assay_type_in_all_cases": "in vivo",
  "key": {"[1]": {"system": "southern armyworm (Spodoptera eridania, (Cram.)) larvae", "assay": "Southern armyworm leaf spray bait test", "design": "key: A: excellent control; B: partial control; C: no control at 500 ppm", "conditions": "500 parts per million, three days", "description": "(§1) Suspensions of the test compounds were prepared by dissolving one gram of compound in 50 milliliters of acetone in which had been dissolved 0.1 gram (10 percent of the weight of compound) of an alkylphenoxy polyethoxyethanol surfactant, as an emulsifying or dispersing agent. The resulting solution was mixed into 150 milliliters of water to give roughly 200 milliliters of a suspension containing the compound in finely divided form. The thus-prepared stock suspension contained 0.5 percent by weight of compound. The concentrations in parts per million by weight employed in the tests described hereinbelow were obtained by appropriate dilutions of the stock suspension with water. The test procedures were as follows:\nLarvae of the southern armyworm (Spodoptera eridania, (Cram.)), reared on Tendergreen bean plants at a temperature of 80±5° F. and a reative humidity of 50±5 percent, constituted the test insects.\nThe test compounds were formulated by diluting the stock suspension with water to give a suspension containing 500 parts of test compound per million parts of final formulation. Potted Tendergreen bean plants of standard height and age were placed on a revolving turntable and sprayed with 100-110 milliliters of test compound formulation by use of a DeVilbiss spray gun set at 40 psig air pressure. This application, which lasted 25 seconds, was sufficient to wet the plants to run-off. As a control, 100-110 milliliters of a water-acetone-emulsifier solution containing no test compound were also sprayed on infested plants. When dry, the paired leaves were separated and each one was placed in a 9 centimeter Petri dish lines with moistened filter paper. Five randomly selected larvae were introduced into each dish and the dishes were closed. The closed dishes were labeled and held at 80°-85° F. for three days. Although the larvae could easily consume the whole leaf within twenty-four hours, no more food was added. Larvae which were unable to move the length of the body, even upon stimulation by prodding, were considered dead.\n(§2) In these tests the pesticidal activity of the compounds at the indicated dosage rate against aphid, Southern Armyworm, Bean Beetle and housefly was rated as follows: […]"}, "[2]": {"system": "root-knot nematode, Meloidogyne incognita var. acrita", "assay": "Nematocide test", "design": "key: 1: severe galling, equal to untreated plants; 2: moderate galling; 3: light galling; 4: very light galling; 5: no galling, perfect control", "conditions": "3.33 m.g. per jar, cucumber, approximately 3 weeks", "description": "The test organism used was the infective migratory larvae of the root-knot nematode, Meloidogyne incognita var. acrita, reared in the greenhouse on roots of cucumber plants. Infected plants were removed from the culture, and the roots were chopped very finely. A small amount of this inoculum was added to a pint jar containing approximately 180 cc. of soil. The jars were capped and incubated for one week at room temperature. During this period eggs of the nematode were hatched, and the larval forms migrated into the soil.\nTen ml. of the test formulation were added to each of the two jars for each dosage tested. Following the addition of chemical, the jars were capped, and the contents thoroughly mixed on a ball mill for […].\nThe test compounds were formulated by a standard procedure of solution in acetone addition of an emulsifier, and dilution with water. Primary screening tests were conducted at 3.33 m.g. of the test compound per jar.\nThe jars were left capped at room temperature for a period of 48 hours, and the contents then transferred to 3 inch pots. Subsequently, the pots were seeded to cucumber as an indicator crop and placed in the greenhouse where they were cared for in the normal fashion for approximately 3 weeks.\nThe cucumber plants were then taken from the pots, the soil removed from the roots, and the amount of galling visually rated.\nIn the test for activity against nematodes activity was rated as follows: […]"}, "[3]": {"system": "bean aphid (Aphis fabae Scop.)", "assay": "Bean aphid foliage spray test", "design": "key: A: excellent control; B: partial control; C: no control at 500 ppm", "conditions": "500 parts per million, 24 hour", "description": "as §1\nAdults and nymphal stages of the bean aphid (Aphis fabae Scop.) reared on potted dwarf nasturtium plants at 68°-70° F. and 50±5 percent relative humidity, constituted the test insects. For testing purposes, the number of aphids per pot were standardized to 100-150 by trimming plants containing excess aphids.\nThe test compounds were formulated by diluting the stock suspension with water to give a suspension containing 500 parts of test compound per million parts of final formulation.\nThe potted plants (one pot per compound tested) infested with 100-150 aphids, were placed on a revolving turntable and sprayed with 100-110 milliliters of test compound formulation by use of a DeVilbiss spray gun set at 40 psig. air pressure. This application, which lasted 25 seconds, was sufficient to wet the plants to run-off. As a control, 100-110 milliliters of a water-acetone-emulsifier solution containing no test compound was also sprayed on infested plants. After spraying, the pots were placed on their sides on a sheet of white standard mimeograph paper which had been previously ruled to facilitate counting. Temperature and humidity in the test room during the 24 hour holding period were 68°-70° F. and 50±5 percent, respectively. Aphids which fell onto the paper and were unable to remain standing after being uprighted were considered dead. Aphids remaining on the plants were observed closely for movement and those which were unable to move the length of the body upon stimulation by prodding were considered dead.\nas §2"}, "[4]": {"system": "house flies (Musca domestica, L.)", "assay": "Fly bait test", "design": "key: A: excellent control; B: partial control; C: no control at 500 ppm", "conditions": "500 parts per million, sugar bait, twenty-four hours", "description": "as §1\nFour to six day old adult house flies (Musca domestica, L.), reared according to the specifications of the Chemical Specialties Manufacturing Association (Blue Book, McNair-Dorland Co., N.Y. 1954; pages 243-244, 261) under controlled conditions of 80±5° F. and 50±5 percent relative humidity, were the test insects. The flies were immobilized by anesthetizing them with carbon dioxide. Twenty-five immobilized individuals, males and females, were transferred to a cage consisting of a standard food strainer about five inches in diameter which was inverted over a wrapping-paper-covered surface. The test compounds were formulated by diluting the stock suspension with a 10 percent (by weight) sugar solution to give a suspension containing 500 parts of test compound per million parts of final formulation, by weight. Ten milliliters of the test formulation were added to a souffle cup containing a one-inch square of an absorbent cotton pad. This bait cup was introduced and centered on the blotting paper under the food strainer prior to admitting the anesthetized flies. The caged flies were allowed to feed on the bait for twenty-four hours, at a temperature of 80±5° F. and at a relative humidity of 50±5 percent.\nas §2"}},
  "data": [
    {"compound": "CSC(C)=NOC(=O)N(C)SN(C)C(=O)Oc1cccc(C=O)c1", "note": "[Compound 3]", "values": [
      {"measurement": "Southern Armyworm, pesticidal activity rating", "setting": "[1]", "result": "A"},
      {"measurement": "Root-Knot Nematode, galling rating", "setting": "[2]", "result": 1},
      {"measurement": "Aphids, pesticidal activity rating", "setting": "[3]", "result": "A"},
      {"measurement": "Housefly, pesticidal activity rating", "setting": "[4]", "result": "A"}
    ]}
  ]
}
